Test results reported in US20230212549A1, “COMPOUNDS COMPRISING A […] LIGAND AND USE THEREOF” (priority 2021, published 2023).
Numbered stars: 1 amine (or outer) side, 2 acyl side, 3 side chain; on linkers, the order of the positions; unused ones are H or OH. Bridge positions count the residues as written; N and C are the ends. Square brackets hold non-standard residues; d marks the D form. Peptide text beside a SMILES is read from it. * marks the point of attachment. X13 = O=C(O)CN1CCN(CC(=O)O)CCN(CC(=O)N2CCN(Cc3cc(C[*:1])cc(C[*:2])c3)CC2)CCN(CC(=O)O)CC1; mXylylene = c1cc(C[*:1])cc(C[*:2])c1; NMeF = CN[C@@H](Cc1ccccc1)C(=O)O; Tic = O=C(O)[C@@H]1Cc2ccccc2CN1; Hexanoyl = CCCCCC(=O)*; Mpa = O=C(O)CCS

Assays:
[1] = target: T1, FAP-expressing human WI-38 fibroblasts (Homo sapiens, UniProt Q12884); assay: Competitive FACS binding assay
T1 construct: FAP-expressing human WI-38 fibroblasts (ECACC) were cultured in EMEM; host or cells: WI-38 human fibroblasts
Method: Cells were analyzed in an Attune NxT flow cytometer. […] […].
Cells were analyzed in an Attune NxT flow cytometer. […]

recombinant human PREP = target: T2, recombinant human PREP (Homo sapiens, UniProt P48147); assay: PREP protease activity assay; type: biochemical
T2 construct: purchased R&D systems 4308-SE
T2 sequence (P48147 1-710): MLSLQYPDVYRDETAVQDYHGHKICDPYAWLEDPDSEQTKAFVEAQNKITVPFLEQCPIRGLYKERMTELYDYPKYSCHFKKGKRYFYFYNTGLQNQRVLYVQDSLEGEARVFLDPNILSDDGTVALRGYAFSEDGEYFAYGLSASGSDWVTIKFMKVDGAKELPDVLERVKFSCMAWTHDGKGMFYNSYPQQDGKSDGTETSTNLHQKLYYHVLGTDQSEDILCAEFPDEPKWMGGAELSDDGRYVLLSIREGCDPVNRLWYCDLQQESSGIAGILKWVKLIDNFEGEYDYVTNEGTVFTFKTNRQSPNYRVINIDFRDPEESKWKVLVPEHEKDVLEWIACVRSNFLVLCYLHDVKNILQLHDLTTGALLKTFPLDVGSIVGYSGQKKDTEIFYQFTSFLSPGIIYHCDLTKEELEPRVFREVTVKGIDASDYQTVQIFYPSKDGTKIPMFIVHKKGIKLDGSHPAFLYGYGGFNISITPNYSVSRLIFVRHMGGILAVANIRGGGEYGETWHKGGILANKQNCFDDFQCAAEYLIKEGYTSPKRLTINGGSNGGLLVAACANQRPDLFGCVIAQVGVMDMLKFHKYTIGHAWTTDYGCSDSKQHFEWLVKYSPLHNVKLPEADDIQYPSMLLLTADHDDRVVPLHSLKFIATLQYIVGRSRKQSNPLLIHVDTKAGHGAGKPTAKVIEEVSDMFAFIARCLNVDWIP

Human recombinant FAP [2] = target: T3, Human recombinant FAP (Homo sapiens, UniProt Q12884); assay: FRET-based FAP protease activity assay; type: biochemical; set-up: purchased R&D systems 3715-SE; details: pIC50 Category (Activity), FRET-based FAP protease activity assay, recombinant human FAP, 37° C.
Recombinant human DPP4 = target: T4, Recombinant human DPP4 (Homo sapiens, UniProt P27487); assay: DPP4 protease activity assay; type: biochemical
T4 construct: purchased R&D systems 9168-SE

[3] = 24 h incubation, 37° C.
[4] = Plasma stability assay, mouse plasma; type: in vitro ADME; details: mouse, plasma, 37° C., read-out: % intact compound remaining after incubation, Mouse plasma; for remaining at 4 h, 9.8 µM: 4 h incubation; for remaining at 24 h, 9.8 µM: 24 h incubation
Human recombinant FAP [5] = target: T3, Human recombinant FAP; assay: Surface plasmon resonance (Biacore) assay; type: binding
[6] = 24 h incubation, 37° C.; remark: listed apart in the source
[7] = Pharmacokinetic study in rats (plasma, NCA); details: rat, intravenous; for Vd: rat plasma
[8] = Pharmacokinetic study in mice (plasma, NCA); details: mouse, intravenous; for Vd: mouse plasma

T3 sequence (Q12884 whole entry): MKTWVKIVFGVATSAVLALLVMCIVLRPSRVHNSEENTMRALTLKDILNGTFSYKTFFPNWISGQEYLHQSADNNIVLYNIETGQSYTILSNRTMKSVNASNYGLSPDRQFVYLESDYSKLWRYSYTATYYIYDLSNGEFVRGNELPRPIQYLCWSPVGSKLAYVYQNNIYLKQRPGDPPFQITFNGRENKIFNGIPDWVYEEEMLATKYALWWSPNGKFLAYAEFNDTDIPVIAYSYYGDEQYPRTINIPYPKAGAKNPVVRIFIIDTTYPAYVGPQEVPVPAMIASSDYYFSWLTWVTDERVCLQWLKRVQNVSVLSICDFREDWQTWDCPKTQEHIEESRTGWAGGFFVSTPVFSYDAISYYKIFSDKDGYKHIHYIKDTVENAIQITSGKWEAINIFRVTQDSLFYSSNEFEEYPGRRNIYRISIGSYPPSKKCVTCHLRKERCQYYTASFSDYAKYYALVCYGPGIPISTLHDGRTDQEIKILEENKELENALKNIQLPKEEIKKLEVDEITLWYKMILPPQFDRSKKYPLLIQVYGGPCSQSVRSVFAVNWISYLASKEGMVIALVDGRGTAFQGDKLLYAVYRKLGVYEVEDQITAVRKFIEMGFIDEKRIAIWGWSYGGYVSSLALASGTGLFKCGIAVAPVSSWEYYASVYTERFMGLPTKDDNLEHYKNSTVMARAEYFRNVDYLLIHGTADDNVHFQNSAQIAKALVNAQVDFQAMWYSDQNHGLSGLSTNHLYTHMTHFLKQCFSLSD
T1 sequence (Q12884 whole entry): as above
T4 sequence (P27487 whole entry): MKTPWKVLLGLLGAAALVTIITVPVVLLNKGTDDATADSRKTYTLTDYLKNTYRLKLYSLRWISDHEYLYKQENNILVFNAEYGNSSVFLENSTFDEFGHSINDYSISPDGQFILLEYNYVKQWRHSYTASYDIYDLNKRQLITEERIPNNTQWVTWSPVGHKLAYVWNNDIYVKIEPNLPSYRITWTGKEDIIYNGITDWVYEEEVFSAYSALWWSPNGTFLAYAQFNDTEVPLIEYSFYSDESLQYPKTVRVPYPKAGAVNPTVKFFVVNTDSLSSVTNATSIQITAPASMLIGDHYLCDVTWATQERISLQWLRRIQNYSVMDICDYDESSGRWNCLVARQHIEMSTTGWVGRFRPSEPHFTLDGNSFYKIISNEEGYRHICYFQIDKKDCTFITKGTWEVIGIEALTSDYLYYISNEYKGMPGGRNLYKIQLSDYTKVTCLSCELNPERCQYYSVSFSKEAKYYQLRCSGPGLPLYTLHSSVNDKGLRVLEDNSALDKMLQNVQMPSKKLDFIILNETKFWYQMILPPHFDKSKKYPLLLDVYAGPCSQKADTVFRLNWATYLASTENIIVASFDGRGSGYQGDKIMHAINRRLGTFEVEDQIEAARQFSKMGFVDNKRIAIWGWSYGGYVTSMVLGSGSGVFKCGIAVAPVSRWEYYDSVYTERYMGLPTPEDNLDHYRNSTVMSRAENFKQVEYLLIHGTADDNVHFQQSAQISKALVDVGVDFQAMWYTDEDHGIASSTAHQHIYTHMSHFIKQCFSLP

Structure (SMILES): C[C@@H](O)[C@@H]1NC(=O)[C@@H]2CCCN2C(=O)[C@@H]2CCCN2C(=O)CCSCc2cccc(c2)CSC[C@@H](C(=O)N[C@@H](CC(=O)O)C(N)=O)NC(=O)[C@H](Cc2ccccc2)NC(=O)[C@H](CCC(N)=O)NC1=O [3BP-3419, [3MeBn-Spa-Pro-Pro-Thr-Gln-Phe-Cys]-Asp-NH2] ([Mpa]PPTQFCD-NH2; linker 1-7 via mXylylene)
- IC50 [1]: 100 to 794 nM
- IC50 (recombinant human PREP): > 1000 nM
- IC50 (Human recombinant FAP [2]): 100 to 794 nM
- IC50 (Recombinant human DPP4): > 1000 nM

Structure (SMILES): CCCC[C@H](NC(=O)CCC(=O)NCCCOCCOCCOCCCNC(=O)CN1CCN(CC(=O)O)CCN(CC(=O)O)CCN(CC(=O)O)CC1)C(=O)N[C@H]1CSCc2cccc(c2)CSC[C@@H](C(=O)NCCC(=O)O)NC(=O)[C@H](Cc2ccccc2)NC(=O)[C@H](CCC(N)=O)NC(=O)[C@H]([C@@H](C)O)NC(=O)[C@@H]2CCCN2C(=O)[C@@H]2CCCN2C1=O [3BP-3398, DOTA-Ttds-Nle-[Cys(3MeBn)-Pro-Pro-Thr-Gln-Phe-Cys]-Bal-OH]
- % intact compound remaining after incubation, Human plasma [3]: 99% (24 h)

Structure (SMILES): CCCCCC(=O)N[C@H]1CSCc2cccc(c2)CSC[C@@H](C(=O)N[C@@H](CCCCNC(=O)CN2CCN(CC(=O)O)CCN(CC(=O)O)CCN(CC(=O)O)CC2)CC(=O)O)NC(=O)[C@H](Cc2ccccc2)NC(=O)[C@H](CCC(N)=O)NC(=O)[C@H]([C@@H](C)O)NC(=O)[C@@H]2CCCN2C(=O)[C@@H]2CCCN2C1=O [3BP-3397, Hex-[Cys(3MeBn)-Pro-Pro-Thr-Gln-Phe-Cys]-Bhk(DOTA)-OH]
- % intact compound remaining after incubation, Human plasma [3]: 100% (24 h)

Structure (SMILES): CSCC[C@@H](NC(C)=O)C(=O)N[C@H]1CSCc2cccc(c2)CSC[C@@H](C(=O)N[C@@H](CC(=O)O)C(=O)N[C@@H](Cc2c[nH]cn2)C(=O)N[C@@H](Cc2ccccc2)C(=O)N[C@@H](CCCNC(=N)N)C(=O)N[C@@H](CC(=O)O)C(N)=O)NC(=O)[C@H](Cc2ccccc2)NC(=O)[C@H](CCC(=O)O)NC(=O)[C@H]([C@@H](C)O)NC(=O)[C@@H]2CCCN2C(=O)[C@@H]2CCCN2C1=O [3BP-3187, Ac-met-[Cys(3MeBn)-Pro-Pro-Thr-Glu-Phe-Cys]-Asp-His-Phe-Arg-Asp-NH2] (Ac-[dM]CPPTEFCDHFRD-NH2; linker 2-8 via mXylylene)
- remaining at 4 h, 9.8 µM [4]: 100%

Structure (SMILES): CCCCCC(=O)N[C@H]1CSCc2cc(cc(CN3CCN(C(=O)CN4CCN(CC(=O)O)CCN(CC(=O)O)CCN(CC(=O)O)CC4)CC3)c2)CSC[C@@H](C(=O)O)NC(=O)[C@H](Cc2ccccc2)NC(=O)[C@H](CCC(N)=O)NC(=O)[C@H]([C@@H](C)O)NC(=O)[C@@H]2CCCN2C(=O)[C@@H]2CCCN2C1=O [3BP-3555, Hex-[Cys(tMeBn(DOTA-PP))-Pro-Pro-Thr-Gln-Phe-Cys]-OH]
- IC50 [1]: 10 to 79.4 nM
- Kd (Human recombinant FAP [5]): < 10 nM
- IC50 (Human recombinant FAP [2]): < 10 nM
- remaining at 24 h, 9.8 µM [4]: 88%

Structure (SMILES): CSCC[C@H](NC(C)=O)C(=O)N[C@H]1CSCc2cccc(c2)CSC[C@@H](C(=O)N[C@@H](CC(=O)O)C(=O)N[C@@H](Cc2c[nH]cn2)C(=O)N(C)[C@@H](Cc2ccccc2)C(=O)N[C@@H](CCCNC(=N)N)C(=O)N[C@@H](CC(=O)O)C(N)=O)NC(=O)[C@H](Cc2ccccc2)NC(=O)[C@H](CCC(=O)O)NC(=O)[C@H]([C@@H](C)O)NC(=O)[C@@H]2CCCN2C(=O)[C@@H]2CCCN2C1=O [3BP-3188, Ac-Met-[Cys(3MeBn)-Pro-Pro-Thr-Glu-Phe-Cys]-Asp-His-Nmf-Arg-Asp-NH2] (Ac-MCPPTEFCDH[NMeF]RD-NH2; linker 2-8 via mXylylene)
- IC50 [1]: < 10 nM
- IC50 (Human recombinant FAP [2]): < 10 nM
- remaining at 4 h, 9.8 µM [4]: 97%

Structure (SMILES): CCCCCC(=O)N[C@H]1CSCc2cc(cc(CN3CCN(C(=O)CN4CCN(CC(=O)O)CCN(CC(=O)O)CCN(CC(=O)O)CC4)CC3)c2)CSC[C@@H](C(=O)N[C@@H](CC(=O)O)C(N)=O)NC(=O)[C@H](Cc2ccccc2)NC(=O)[C@H](CCC(N)=O)NC(=O)[C@H]([C@@H](C)O)NC(=O)[C@@H]2CCCN2C(=O)[C@@H]2CCCN2C1=O [3BP-3590, Hex-[Cys(tMeBn(InDOTA-PP))-Pro-Pro-Thr-Gln-Phe-Cys]-Asp-NH2] (Hexanoyl-CPPTQFCD-NH2; linker 1-7 via X13)
- % intact compound remaining after incubation, Rat plasma [6]: 100% (24 h)
- remaining at 24 h, 9.8 µM [4]: 100%
- % intact compound remaining after incubation, Human plasma [3]: 94% (24 h)

Structure (SMILES): CCCCCC(=O)N[C@H]1CSCc2cc(CSCCNC(=O)CN3CCN(CC(=O)O)CCN(CC(=O)O)CCN(CC(=O)O)CC3)cc(c2)CSC[C@@H](C(=O)O)NC(=O)[C@H](Cc2ccccc2)NC(=O)[C@H](CCC(N)=O)NC(=O)[C@H]([C@@H](C)O)NC(=O)[C@@H]2CCCN2C(=O)[C@@H]2CCCN2C1=O [3BP-3623, Hex-[Cys(tMeBn(InDOTA-AET))-Pro-Pro-Thr-Gln-Phe-Cys]-OH]
- AUC(0-inf) ([7]; 40 nmol/kg): 0.074 µM·h
- C0 ([7]; 40 nmol/kg): 127 nM
- clearance ([7]; 40 nmol/kg): 9.02 mL/min/kg
- half-life ([7]; 40 nmol/kg): 45 min
- Vd ([7]; 40 nmol/kg, Vss, 40 nmol/kg): 0.48 L/kg
- Vd ([7]; 40 nmol/kg, Vz): 0.58 L/kg
- AUC(0-inf) ([7]; 400 nmol/kg): 0.738 µM·h
- C0 ([7]; 400 nmol/kg): 1410 nM
- clearance ([7]; 400 nmol/kg): 9.03 mL/min/kg
- half-life ([7]; 400 nmol/kg): 71 min
- Vd ([7]; 400 nmol/kg, Vz): 0.93 L/kg
- % intact compound remaining after incubation, Rat plasma [6]: 100% (24 h)
- % intact compound remaining after incubation, Human plasma [3]: 100% (24 h)
- AUC(0-inf) ([8]; 4 nmol/kg): 0.0077 µM·h
- C0 ([8]; 4 nmol/kg): 17.6 nM
- clearance ([8]; 4 nmol/kg): 8.63 mL/min/kg
- half-life ([8]; 4 nmol/kg): 35 min
- Vd ([8]; 4 nmol/kg, Vss, 4 nmol/kg): 0.36 L/kg
- Vd ([8]; 4 nmol/kg, Vz): 0.44 L/kg
- AUC(0-inf) ([8]; 40 nmol/kg): 0.055 µM·h
- C0 ([8]; 40 nmol/kg): 228 nM
- clearance ([8]; 40 nmol/kg): 12 mL/min/kg
- half-life ([8]; 40 nmol/kg): 30 min
- Vd ([8]; 40 nmol/kg, Vss, 40 nmol/kg): 0.31 L/kg
- Vd ([8]; 40 nmol/kg, Vz): 0.53 L/kg
- AUC(0-inf) ([8]; 400 nmol/kg): 0.532 µM·h
- C0 ([8]; 400 nmol/kg): 2130 nM
- clearance ([8]; 400 nmol/kg): 12.5 mL/min/kg
- half-life ([8]; 400 nmol/kg): 35 min
- Vd ([8]; 400 nmol/kg, Vss, 400 nmol/kg): 0.2 L/kg
- Vd ([8]; 400 nmol/kg, Vz): 0.64 L/kg

Structure (SMILES): CCCCCC(=O)N[C@H]1CSCc2cc(CSCCNC(=O)CN3CCN(CC(=O)O)CCN(CC(=O)O)CCN(CC(=O)O)CC3)cc(c2)CSC[C@@H](C(=O)O)NC(=O)[C@H](Cc2ccccc2)NC(=O)[C@H](CCC(N)=O)NC(=O)[C@H]([C@@H](C)O)NC(=O)[C@@H]2CCCN2C(=O)[C@@H]2CCCN2C1=O [3BP-3624, Hex-[Cys(tMeBn(LuDOTA-AET))-Pro-Pro-Thr-Gln-Phe-Cys]-OH]
- % intact compound remaining after incubation, Rat plasma [6]: 100% (24 h)
- % intact compound remaining after incubation, Human plasma [3]: 100% (24 h)

Structure (SMILES): CSCC[C@H](NC(C)=O)C(=O)N[C@H]1CSCc2cccc(c2)CSC[C@@H](C(=O)N[C@@H](CC(=O)O)C(=O)N[C@@H](Cc2c[nH]cn2)C(=O)N2Cc3ccccc3C[C@H]2C(=O)N[C@@H](CCCNC(=N)N)C(=O)N[C@@H](CC(=O)O)C(N)=O)NC(=O)[C@H](Cc2ccccc2)NC(=O)[C@H](CCC(=O)O)NC(=O)[C@H]([C@@H](C)O)NC(=O)[C@@H]2CCCN2C(=O)[C@@H]2CCCN2C1=O [3BP-3189, Ac-Met-[Cys(3MeBn)-Pro-Pro-Thr-Glu-Phe-Cys]-Asp-His-Tic-Arg-Asp-NH2] (Ac-MCPPTEFCDH[Tic]RD-NH2; linker 2-8 via mXylylene)
- remaining at 4 h, 9.8 µM [4]: 100%
